PubChem BioAssay (NCI)
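Where inhibition never reached the appropriate level, the endpoint shown equals the highest concentration tested. Otherwise, values were interpolated linearly from a five-concentration, 48-hour dose response in 96-well plates. Definition used: TGI = concentration required for complete inhibition of growth.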

Legend:
Test in all cases: NCI tumour cell line growth inhibition, 48 h
LXFL 529 NSCLC = test system: LXFL 529 NSCLC
XF 498 CNS = test system: XF 498 CNS
HOP-18 NSCLC = test system: HOP-18 NSCLC
P388 leukemia = test system: P388 leukemia
SN12K1 renal = test system: SN12K1 renal
P388/ADR leukemia = test system: P388/ADR leukemia
RXF-631 renal = test system: RXF-631 renal

SMILES | TGI (LXFL 529 NSCLC) | TGI (XF 498 CNS) | TGI (HOP-18 NSCLC) | TGI (P388 leukemia) | TGI (SN12K1 renal) | TGI (P388/ADR leukemia) | TGI (RXF-631 renal)
NC1C=NNC1=O (stereo not given) | > 100 µM | > 100 µM |  |  |  |  | 
O=NN1C(c2ccccc2)C2CCCC(C2=O)C1c1ccccc1 (stereo not given) |  | 33.3 µM | > 25.2 µM | > 64.1 µM | > 71.3 µM | 45.9 µM | 
c1ccc2c(c1)OCCc1cn[nH]c1-2 |  | > 100 µM | > 100 µM | > 100 µM | > 100 µM | > 100 µM | 
CCc1c2cc(OC)c(OC)cc2cc2c3cc(OC)c(OC)cc3cc[n+]12 (tested in a mixture with another compound) | > 76.3 µM | 33.6 µM | > 100 µM |  |  |  | 
CCC1C(C#N)=C(O)NC(O)=C1C#N | > 100 µM | > 100 µM | > 100 µM |  |  |  | > 100 µM
COc1ccc(NC(=S)NNC(=O)c2nsc3ccccc23)cc1 | > 100 µM |  |  |  |  |  | 
